Results as given in patent US8263655B2, “Methods for treatment of renal failure” (Technion Research and Development Foundation Ltd, priority 2005, dated 2012).

Experiments:
rats with renal ischemia = assay: Rat renal ischemia-reperfusion injury (IRI) model of acute renal failure, renal clearance study; assay type: in vivo, Sprague Dawley rats; conditions: for diuretic and natriuretic responses and GFR in the ischemic kidney: summary statement
Method: (§1) (ii) Animals. Studies were conducted on Sprague Dawley rats (Harlan Laboratories Ltd., Jerusalem, Israel), weighing 290˜330 g. The animals were kept in a temperature-controlled room, and were fed standard rat chow containing 0.5% NaCl and tap water ad libitum. All experiments were performed according to the guidelines of the Technion Committee for Supervision of Animal Experiments (Haifa, Israel). Rats were subjected to one of the experimental protocols, described in Examples 1 and 2 hereinafter.
(§2) (iii) Chemical analysis. Sodium concentration in plasma and urine was determined by flame photometry (model IL 943, Instrumentation Laboratory). Inulin and creatinine concentrations were determined by the colorimetric anthrone method. Glomerular filtration rate (GFR) was equated with the clearance of inulin or creatinine.
For this purpose, the effects of either rasagiline or S-(−)-N-propargyl-1-aminoindan on renal clearance parameters, i.e., glomerular filtration rate (GFR), absolute and fractional sodium excretion rates (UNaV and FENa, respectively), and urinary flow (V) were studied in rats that underwent renal ischemia. Rats that underwent the same procedure, but were treated with vehicle, served as controls.
The surgical procedure for the induction of renal ischemia has been previously described (Sela et al., 1992). Briefly, the animals were anesthetized with Inactin (100 mg/kg, i.p.), placed on a thermo-regulated (37° C.) surgical table and prepared for hemodynamic and clearance studies (Brodsky et al., 1998). After tracheotomy, polyethylene tubes (PE50) were inserted into the carotid artery, jugular vein and urinary bladder for blood pressure monitoring, infusion of various solutions and urine collections, respectively. A solution of 2% inulin in 0.9% saline was infused throughout the experiment at a rate of 1.0% of body weight per hour. […] Then, the left kidney was exposed and the renal artery was clamped for forty-five minutes of ischemia, followed by 60 min of reperfusion. The right kidney served as the control, for each animal. Thirty minutes prior to the induction of the renal ischemia, animals were treated with either rasagiline or S-(−)-N-propargyl-1-aminoindan administered as a bolus injection (1.0 mg/kg, I.V.), followed by a sustained infusion of the drugs at a dose of 2 mg/kg/h throughout the whole experiment. Animals treated with saline served as controls. Then, two additional clearance periods were obtained under the influence of the drug. Urine volume was determined gravimetrically. Blood samples were obtained in the midst of every 2nd clearance period.

rats with CHF = assay: Chronic administration to rats with experimental congestive heart failure (aortocaval fistula), renal excretory parameters; assay type: in vivo, Sprague Dawley rats; conditions: for diuretic and natriuretic responses in rats with congestive heart failure: summary statement
Method: as §1, §2
Following surgery, the rats were allowed to recover and housed in individual metabolic cages for measurements of daily urine volume and urinary sodium/potassium excretion.
Rasagiline or S-(−)-N-propargyl-1-aminoindan were dissolved in drinking water and given orally at a dose of 1 or 7.5 mg/kg/day for 5 days to normal rats. Following this period, the animals were subjected either to sham operation (n=6) or to creation of aortocaval fistula (ACF) (n=6) as described above. These experimental groups were treated daily by gavage with 1 or 7.5 mg/kg of rasagiline or S-(−)-N-propargyl-1-aminoindan for additional 14 days, and their daily urine volume, sodium and potassium excretion were measured. Rats treated with vehicle (water) served as controls. After completion of the treatment period, animals from the different experimental groups were killed by decapitation and their blood was collected in pre-cooled tubes. Rats with sham operation or animals with arterio-venous fistula treated with vehicle served as controls.

C#CCN[C@H]1CCc2ccccc21 [S-(−)-N-propargyl-1-aminoindan]
glomerular filtration rate (GFR), function of the ischemic kidney (rats with renal ischemia; ischemic (left) kidney, 1.0 mg/kg I.V. bolus 30 min prior to ischemia, then 2 mg/kg/h infusion, 45 min ischemia, 60 min reperfusion, FIG. 1B): improved the function of the ischemic kidney | fractional excretion of Na+ (FENa) by ischemic kidney (rats with renal ischemia; ischemic kidney, 1.0 mg/kg I.V. bolus, then 2 mg/kg/h infusion, FIG. 2B): enhanced FENa by ischemic kidney more than rasagiline | fractional excretion of Na+ (FENa) by normal kidney (rats with renal ischemia; normal kidney, 1.0 mg/kg I.V. bolus, then 2 mg/kg/h infusion, FIG. 2A): increased the fractional excretion of Na^+ (FENa) by normal kidney | diuretic and natriuretic responses and GFR in the ischemic kidney (rats with renal ischemia; ischemic kidney): diuretic and natriuretic responses accompanied by improved GFR | GFR (creatinine clearance test) (rats with CHF; rats with CHF, 1 or 7.5 mg/kg/day by gavage for 2 weeks, FIG. 6): enhanced GFR | urinary flow rate (daily urine volume) (rats with CHF; rats with CHF, 1 or 7.5 mg/kg/day orally, 14 days after fistula, FIGS. 3A-3B): increased the urinary flow rate | absolute (daily) urinary sodium excretion (rats with CHF; rats with CHF, 1 or 7.5 mg/kg/day orally, 14 days, FIG. 4): markedly enhanced | cumulative urinary sodium excretion (rats with CHF; rats with CHF, 1 or 7.5 mg/kg/day orally, 14 days, FIG. 5): markedly enhanced | diuretic and natriuretic responses in rats with congestive heart failure (rats with CHF): significant diuretic and natriuretic responses

C#CCN[C@@H]1CCc2ccccc21 [rasagiline, R(+)-N-propargyl-1-aminoindan, reference compound]
diuretic and natriuretic responses and GFR in the ischemic kidney (rats with renal ischemia; ischemic kidney): diuretic and natriuretic responses accompanied by improved GFR | diuretic and natriuretic responses in rats with congestive heart failure (rats with CHF): significant diuretic and natriuretic responses
